For eight compounds, EC50 results are on record in ChEMBL document CHEMBL1137813, “An extract of Tagetes lucida and its phenolic constituents as antioxidants” (J Nat Prod, 2002).

The structures appear in SMILES notation.

This experiment relates to Radical scavenging activity. The experiment is described as follows: Antioxidant activity assessed as DPPH radical scavenging activity after 20 mins by UV-visible spectrophotometry. The experiment is classed as functional. (In general: Loss of DPPH colour is used to gauge radical scavenging.)

`O=c1c(O)c(-c2ccc(O)cc2)oc2cc(O[C@@H]3O[C@H](CO)[C@@H](O)[C@H](O)[C@H]3O)c(O)c(O)c12`: the EC50 was 6.9 µg.
To `O=c1c(O)c(-c2ccc(O)c(O)c2)oc2cc(O[C@@H]3O[C@H](CO)[C@@H](O)[C@H](O)[C@H]3O)c(O)c(O)c12` belongs 4.6 µg.
As for `Cc1c(C)c2c(c(C)c1O)CC[C@@](C)(CCC[C@H](C)CCC[C@H](C)CCCC(C)C)O2` [ALPHA-TOCOPHEROL], the EC50 came out at 10.1 µg.
Turning to `O=C(O)/C=C/c1ccc(O)c(O)c1` [CAFFEIC ACID], the EC50 amounted to 3 µg.
As to `O=C(O)c1cc(O)c(O)c(O)c1` [GALLIC ACID], the EC50 came to 1.2 µg.
For `O=c1c(O)c(-c2ccc(O)cc2)oc2cc(O)cc(O)c12` [KAEMPFEROL], the EC50 was found to be 4.4 µg.
`O=c1c(O)c(-c2ccc(O)c(O)c2)oc2cc(O)cc(O)c12` [QUERCETIN]: the EC50 is 2.3 µg.
In the case of `C[C@@H]1O[C@@H](OC[C@H]2O[C@@H](Oc3c(-c4ccc(O)c(O)c4)oc4cc(O)cc(O)c4c3=O)[C@H](O)[C@@H](O)[C@@H]2O)[C@H](O)[C@H](O)[C@H]1O` [RUTIN] it was 4.8 µg.
